{
  "source": "patent US7655420B2",
  "about": "“Methods to increase or decrease bone density” (Celltech R & D, Inc., priority 2002, dated 2010)",
  "molecules": {"B1": {"name": "BMP-6: bone morphogenetic protein 6, purchased from R & D Systems (protein)", "chain": "QQSRNRSTQSQDVARVSSASDYNSSELKTACRKHELYVSFQDLGWQDWIIAPKGYAANYCDGECSFPLNAHMNATNHAIVQTLVHLMNPEYVPKPCCAPTKLNAISVLYFDDNSNVILKKYRNMVVRACGCH"}, "B2": {"name": "PTH: parathyroid hormone (PTH), tested at 10^−8 M (peptide, UniProt P01270 32-115, looked up)", "Parathyroid hormone": "SVSEIQLMHNLGKHLNSMERVEWLRKKLQDVHNFVALGAPLAPRDAGSQRPRKKEDNVLVESHEKSLGEADKADVNVLTKAKSQ", "modifications": "Parathyroid hormone", "notes": "parathyroid hormone (PTH), tested at 10^−8 M"}, "B3": {"name": "noggin: BMP antagonist protein (mouse noggin), purchased from R & D Systems (protein)", "chain": "QHYLHIRPAPSDNLPLVDLIEHPDPIFDPKEKDLNETLLRSLLGGHYDPGFMATSPPEDRPGGGGGPAGGAEDLAELDQLLRQRPSGAMPSEIKGLEFSEGLAQGKKQRLSKKLRRKLQMWLWSQTFCPVLYAWNDLGSRFWPRYVKVGSCFSKRSCSVPEGMVCKPSKSVHLTVLRWRCQRRGGQRCGWIPIQYPIISECKCSC"}, "B4": {"name": "BMP-4: bone morphogenetic protein 4, purchased from R & D Systems (protein, UniProt P12644 293-408, looked up)", "Bone morphogenetic protein 4": "SPKHHSQRARKKNKNCRRHSLYVDFSDVGWNDWIVAPPGYQAFYCHGDCPFPLADHLNSTNHAIVQTLVNSVNSSIPKACCVPTELSAISMLYLDEYDKVVLKNYQEMVVEGCGCR"}},
  "key": {"SOST expression [1]": {"tested_on": "SOST expression", "test": "BMP-6 induction of SOST expression in hMSC cells with test compounds (RT-PCR)", "assay_type": "cell-based, human", "settings": "for Results (effect on BMP-6 induction of SOST expression): BMP-6, 72 hrs, compound at 1 × 10^−7 M", "description": "The previous example illustrates that SOST expression was enhanced by bone morphogenetic proteins and modulated by steroids such as dexamethasone. In this example, human MSC cells were incubated with bone morphogenetic proteins in the presence of various test agents to determine whether other steroids and compounds could affect the BMP-induction of SOST. SOST expression was monitored by reverse transcriptase polymerase chain reaction (RT-PCR).\nHuman mesenchymal cells (hMSCs) were plated in regular growth media containing 2% FCS and treated with BMP-6 either alone or in combination with the test compounds. The cells were harvested 72 hrs later and RNA was prepared for RT-PCR analysis of SOST expression."}, "SOST expression [2]": {"tested_on": "SOST expression", "test": "SOST expression in hMSC cells and primary human osteoblasts treated with growth factors and hormones (RT-PCR)", "assay_type": "cell-based", "settings": "72 hrs; for SOST expression, factor alone: hMSC cells (and primary human osteoblasts), RT-PCR; for SOST expression, steroid added in combination with BMP-4 versus BMP-4 alone: hMSC cells, vit D 10^−7M, RA 10^−6M, DEX 10^−7M", "description": "(§1) As immature osteoblasts differentiate and become capable of mineralization, they express markers associated with the osteoblast phenotype (type I collagen and parathyroid hormone receptor (PTHr)). These markers were used to ascertain whether differentiation had occurred so that the influence of growth factors and hormones could be correlated with the stage differentiation as well as the level of SOST expression.\n(§2) Human mesenchymal cells and primary human osteoblasts were plated in regular growth media containing 2% FCS at a density of 10,000 cells 1 cm^2. Test reagents (10^−7 M dexamethasone, 10^−6 M retinoic acid, 10 ng/ml TGF-β1, PTH (10^−8 M), 10 or 50 ng/ml IGF-1, 10^−7 M1,25-dihydroxyvitamin D3, and 50 to 300 ng/ml of bone morphogenetic proteins 2, 4 or 6) were added singly or in combination on the following day."}, "gremlin expression": {"tested_on": "gremlin expression", "test": "gremlin expression in hMSC cells treated with BMPs and steroids (RT-PCR)", "assay_type": "cell-based, human", "settings": "72 hrs; for BMP-4 induced gremlin expression, steroid added with BMP-4: BMP-4 100 ng/ml; for gremlin expression, factor alone: RT-PCR", "description": "as §1, §2"}, "noggin expression": {"tested_on": "noggin expression", "test": "noggin expression in hMSC cells treated with BMPs and steroids (RT-PCR)", "assay_type": "cell-based, human", "settings": "72 hrs", "description": "as §1, §2"}, "PTHr expression": {"tested_on": "PTHr expression", "test": "PTHr expression in hMSC cells treated with factors (RT-PCR)", "assay_type": "cell-based, human", "settings": "72 hrs, IGF-1 at 50 ng/ml, DEX 10^−7M", "text": "as §1, with “In this example, the effect of growth factors and hormones on SOST expression in hMSC cells or primary human osteoblasts was observed using RT-PCR. […] As” for “As”\nas §2, with “day. Cultures were continued for 24 to 120 hrs after which the cells were harvested for RNA isolation.” for “day.”"}, "[3]": {"tested_on": "BMP-6 stimulated alkaline phosphatase activity", "test": "BMP-6 stimulated alkaline phosphatase activity in mouse mesenchymal C3H10T1/2 cells", "assay_type": "cell-based", "description": "C3H10T1/2 cells (ATCC Deposit No. CCL-226) were plated in 96-well dishes at a density of 25,000 cells per well in complete growth medium (DMEM with high glucose and glutamine supplemented with 10% FCS, 1% penicillin/streptomycin, 0.1 mM non-essential amino acids, 1 mM sodium pyruvate, 55 μM β-mercaptoethanol, and 20 mM HEPES, pH 7.3). C3H10T1/2 cells were used in a short-term (72 hr) assay to determine the effects of human sclerostin protein on BMP-induced ALP activity. Partially purified preparations of bacculovirus-expressed sclerostin protein were prepared in sterile PBS using NAP-5 columns prior to use. Sclerostin protein (0 to 50 μg/ml) or an equal volume of Sf9 conditioned media (control) was pre-incubated with 500 ng/ml BMP-6 for 1 hr prior to addition to cells. For comparison, similar incubations were carried out with anti-BMP-6 antibody and noggin. Cells were harvested 72 hrs later for determination of ALP activity.\nTo test the specificity of the sclerostin effect, human sclerostin that was synthesized with a FLAG tag, was pre-incubated for 2 hrs at 4° C. with an anti-FLAG antibody coupled to agarose beads. The mixture was then spun down at 10,000×g for 15 minutes at 4° C. and the supernatant treated as “sclerostin protein” in the above assay."}, "[4]": {"tested_on": "alkaline phosphatase (ALP) activity in hMSC cells", "test": "alkaline phosphatase activity in differentiating hMSC cells", "assay_type": "cell-based, human", "settings": "sclerostin 10 μg/ml and increasing amounts of BMP-6"}, "[5]": {"tested_on": "caspase activity in hMSC cells", "test": "apoptosis of hMSC cells by caspase activity (Homogeneous Caspase ELISA)", "assay_type": "cell-based, human", "settings": "hMSC in osteoblast-inducing media, 20 μg/ml sclerostin or other protein, 24 hours", "description": "Human mesenchymal (hMSC) cells were plated in Osteoblast-inducing media (Biowhittaker's MSCGM medium supplemented with 100 nM dexamethasone, 50 μg/ml ascorbic acid, and 10 mM β-glycerophosphate) at a density of 10,000 cells/cm^2 in 96-well dishes.\nFor apoptosis assays, cells were treated with sclerostin or commercially available preparations of the BMP antagonists noggin, chordin, gremlin or twisted gastrulation (Tsg) for 24 hours prior to assay for caspase activity. In some experiments, cells were treated for various times with a partially purified preparation of baculovirus-expressed human sclerostin (0 to 30 μg/ml) or an equal volume of a protein preparation purified from Sf9 conditioned media (control) in the absence or presence of Calbiochem's caspase inhibitors. Cells were harvested and processed for apoptosis assays using the Homogeneous Caspase ELISA (Roche) or Cell Death (Histone-Associated DNA Fragmentation, Roche)."}, "[6]": {"tested_on": "alkaline phosphatase (ALP) activity in hMSC cells", "test": "alkaline phosphatase activity in differentiating hMSC cells", "assay_type": "cell-based, human", "settings": "hMSC cells, Osteoblast-Inducing media, 7 days", "description": "hMSC cells were plated in 96-well tissue culture dishes at a density of 10,000 cells/cm^2 in Osteoblast-Inducing medium. Partially purified preparations of baculovirus-expressed sclerostin protein were prepared in sterile PBS using NAP-5 columns prior to use. Human sclerostin protein (0 to 30 μg/ml) or an equal volume of Sf9 conditioned media (Control) was added to cultures of hMSC cells at various times after plating (1 day, 8 days, 15 days, or 21 days). The effects of sclerostin on osteoblastic differentiation were assessed by measuring alkaline phosphatase activity (ALP, determined in cell layers using DEAA buffer (Pierce) containing 0.5% NP-40 and 10 mM p-nitrophenylphosphate), synthesis of collagen type I (Prolagen C ELISA), and calcium deposition for mineralization (colorimetric assay of acid lysates of cell layers, Sigma)."}},
  "note": "“Also recorded” adds a separate entry of the source.",
  "data": [
    {"molecule": "C[C@@H]1C[C@H]2[C@@H]3CCC4=CC(=O)C=C[C@]4(C)[C@@]3(F)[C@@H](O)C[C@]2(C)[C@@]1(O)C(=O)CO", "note": "[Dexamethasone, dexamethasone, reference compound]", "values": [
      {"measurement": "induction of SOST expression by BMP-6 (BMP-induced SOST expression)", "setting": "SOST expression [1]; 72 hrs, no single concentration stated in the sentence", "result": "blocks"},
      {"measurement": "Results (effect on BMP-6 induction of SOST expression)", "setting": "SOST expression [1]", "result": "blocked; also recorded: Inhibition"},
      {"measurement": "Results (effect on BMP-6 induction of SOST expression)", "setting": "SOST expression [1]; listed as DEX", "result": "blocked"},
      {"measurement": "SOST expression, factor alone", "setting": "SOST expression [2]", "result": "no effect"},
      {"measurement": "SOST expression, steroid added in combination with BMP-4 versus BMP-4 alone", "setting": "SOST expression [2]", "result": "abolished the stimulatory effect"},
      {"measurement": "SOST expression, steroid added in combination with BMP-4 versus BMP-4 alone", "setting": "SOST expression [2]; listed as dexamethasone", "result": "abolished the stimulatory effect; also recorded: significantly suppressed; also recorded: depressed"},
      {"measurement": "BMP-4 induced gremlin expression, steroid added with BMP-4", "setting": "gremlin expression", "result": "diminished"},
      {"measurement": "gremlin expression, factor alone", "setting": "gremlin expression", "result": "decreased"},
      {"measurement": "noggin expression, factor alone", "setting": "noggin expression", "result": "increase"},
      {"measurement": "PTHr expression", "setting": "PTHr expression", "result": "induced"}
    ]},
    {"molecule": "CC1=C(/C=C/C(C)=C/C=C/C(C)=C/C(=O)O)C(C)(C)CCC1", "note": "[retinoic acid, reference compound]", "values": [
      {"measurement": "SOST expression, factor alone", "setting": "SOST expression [2]", "result": "no effect"}
    ]},
    {"molecule": "C=C1/C(=C\\C=C2/CCC[C@]3(C)[C@@H]([C@H](C)CCCC(C)(C)O)CC[C@@H]23)C[C@@H](O)C[C@@H]1O", "note": "[vitamin D, 1,25-dihydroxyvitamin D3, reference compound]", "values": [
      {"measurement": "SOST expression, factor alone", "setting": "SOST expression [2]", "result": "no effect"},
      {"measurement": "SOST expression, steroid added in combination with BMP-4 versus BMP-4 alone", "setting": "SOST expression [2]", "result": "enhanced"},
      {"measurement": "BMP-4 induced gremlin expression, steroid added with BMP-4", "setting": "gremlin expression", "result": "did not alter"},
      {"measurement": "gremlin expression, factor alone", "setting": "gremlin expression", "result": "unchanged"},
      {"measurement": "noggin expression, factor alone", "setting": "noggin expression", "result": "increase"}
    ]},
    {"molecule": "IGF-1: insulin-like growth factor-1", "values": [
      {"measurement": "SOST expression, factor alone", "setting": "SOST expression [2]", "result": "enhanced"},
      {"measurement": "PTHr expression", "setting": "PTHr expression", "result": "induced"}
    ]},
    {"molecule": "TGF-β: transforming growth factor-β", "values": [
      {"measurement": "SOST expression, factor alone", "setting": "SOST expression [2]", "result": "no effect"}
    ]},
    {"molecule": "B1", "values": [
      {"measurement": "SOST expression, factor alone", "setting": "SOST expression [2]", "result": "enhanced; also recorded: up-regulated"},
      {"measurement": "ALP activity, effect of BMP-6", "setting": "[3]; 72 hrs", "result": "increased in a dose-dependent manner; also recorded: stimulatory effect"},
      {"measurement": "reversal of the inhibitory effect of sclerostin on alkaline phosphatase", "setting": "[4]", "result": "partially reversed"},
      {"measurement": "gremlin expression, factor alone", "setting": "gremlin expression", "result": "only modestly increased"},
      {"measurement": "noggin expression, factor alone", "setting": "noggin expression", "result": "up-regulated"}
    ]},
    {"molecule": "B2", "values": [
      {"measurement": "SOST expression, factor alone", "setting": "SOST expression [2]", "result": "no effect"}
    ]},
    {"molecule": "B3", "values": [
      {"measurement": "caspase activity", "setting": "[5]", "result": "no increase; also recorded: no significant effect"},
      {"measurement": "stimulatory effect of BMP-6 on alkaline phosphatase activity (antagonism)", "setting": "[3]; 500 ng/ml BMP-6, 72 hrs", "result": "antagonized"},
      {"measurement": "IC50, decrease of BMP-6 stimulated alkaline phosphatase activity", "setting": "[3]; pre-incubated with 500 ng/ml BMP-6 for 1 hr, 72 hrs", "result": 0.3, "unit": "µg/mL"},
      {"measurement": "ALP activity", "setting": "[6]; protein at 1 μg/ml", "result": "no effect"},
      {"measurement": "ALP activity", "setting": "[6]; protein at 5 μg/ml", "result": "significantly increased"}
    ]},
    {"molecule": "B4", "values": [
      {"measurement": "SOST expression, factor alone", "setting": "SOST expression [2]", "result": "enhanced; also recorded: up-regulated; also recorded: significantly increased"},
      {"measurement": "gremlin expression, factor alone", "setting": "gremlin expression", "result": "only modestly increased; also recorded: enhanced"},
      {"measurement": "noggin expression, factor alone", "setting": "noggin expression", "result": "up-regulated; also recorded: enhanced; also recorded: increase"}
    ]}
  ]
}
